Results reported in paper PMC8584349 (International Journal of Molecular Sciences, 2021).
Where two headings read alike, the source gives them in different places.

Tests used:
SARS-CoV-2 PsV [1] = test: microbe, parasite or virus in culture
SARS-CoV-2 PsV [2] = test: microbe, parasite or virus in culture; type: cell-based; details: Severe acute respiratory syndrome coronavirus 2; target cells pretreated with 25-HC 8–12 h; luciferase; read-out: IC50, inhibition of SARS-CoV-2 PsV infection
MERS-CoV PsV [3] = details: in 25-HC/EK1 combination versus alone
authentic HCoV-229E [4] = test: microbe, parasite or virus in culture; type: cell-based; details: Human coronavirus 229E; Huh-7 cell line; cells pretreated with 25-HC 8–12 h; CCK-8; read-out: IC50, inhibition of authentic HCoV-229E infection
SARS-CoV-2 PsV [5] = system: SARS-CoV-2 PsV
MERS-CoV PsV [6] = test: microbe, parasite or virus in culture; details: Middle East respiratory syndrome-related coronavirus
SARS-CoV PsV [7] = test: microbe, parasite or virus in culture; type: cell-based; details: Severe acute respiratory syndrome coronavirus, read-out: IC50, inhibition of SARS-CoV PsV infection
SARS-CoV-2 VOC PsVs = details: 12 h
SARS-CoV PsV [8] = details: 12 h
authentic HCoV-OC43 = test: Authentic virus inhibition assay, HCoV-OC43 in RD cells; type: cell-based; details: RD cell line, CCK8, triplicate, repeated twice, read-out: IC50, inhibition of HCoV-OC43 replication
Description: (§1) Inhibition of authentic coronaviruses was performed as previously reported. Briefly, authentic HCoV-OC43 or HCoV-229E was coincubated with a test peptide at different concentrations at 37 °C for 30 min. Then, these authentic virus–peptide mixtures were added into target cells in a 96-well plate (Huh-7 cell line for HCoV-229E, RD cell line for HCoV-OC43). CCK8 solution was used to assess virus-induced cytopathy when the cytopathic effect (CPE) of DMSO-treated target cells was clear and the IC50 value was calculated.

authentic HCoV-229E [9] = test: Authentic virus inhibition assay, HCoV-229E in Huh-7 cells; type: cell-based; details: Huh-7 cell line, CCK8, triplicate, repeated twice, read-out: IC50, inhibition of HCoV-229E replication
Description: as §1

C[C@H](CCCC(C)(C)O)[C@H]1CC[C@H]2[C@@H]3CC=C4C[C@@H](O)CC[C@]4(C)[C@H]3CC[C@]12C [25-HC, 25-Hydroxycholesterol]
IC50 (SARS-CoV-2 PsV [1]; Severe acute respiratory syndrome coronavirus 2, read-out: IC50, tested alone): 9.3 µM
IC50 (SARS-CoV-2 PsV [1]; Severe acute respiratory syndrome coronavirus 2, read-out: IC50, tested in EK1/25-HC combination): 3.7 µM
IC50 (SARS-CoV-2 PsV [2]): 4.11 µM
dose reduction (MERS-CoV PsV [3]): 4 fold
IC50 (authentic HCoV-229E [4]): 5.35 µM
dose reduction (SARS-CoV-2 PsV [5]; SARS-CoV-2 PsV, in 25-HC/EK1 combination versus alone): 3 fold
IC50 (MERS-CoV PsV [6]; read-out: IC50, tested alone): 6.8 µM
IC50 (MERS-CoV PsV [6]; read-out: IC50, tested in EK1/25-HC combination): 1.6 µM
IC50 (SARS-CoV PsV [7]): 2.79 µM

CC[C@H](C)[C@H](NC(=O)[C@H](C)NC(=O)[C@H](CCC(=O)O)NC(=O)[C@H](CCC(=O)O)NC(=O)[C@H](CC(C)C)NC(=O)[C@H](CCCCN)NC(=O)[C@H](CCCCN)NC(=O)[C@H](CCSC)NC(=O)[C@H](CCC(=O)O)NC(=O)[C@H](Cc1ccc(O)cc1)NC(=O)[C@H](CCC(=O)O)NC(=O)[C@H](CC(C)C)NC(=O)[C@H](CC(=O)O)NC(=O)[C@H](CC(C)C)NC(=O)[C@H](Cc1ccccc1)NC(=O)[C@@H](NC(=O)[C@@H](NC(=O)[C@H](CC(N)=O)NC(=O)[C@@H](NC(=O)[C@H](CCC(N)=O)NC(=O)[C@H](CC(=O)O)NC(=O)[C@H](CC(C)C)NC(=O)[C@@H](N)CO)[C@@H](C)CC)C(C)C)[C@@H](C)O)C(=O)N[C@@H](CCCCN)C(=O)N[C@@H](CCCCN)C(=O)N[C@@H](CC(C)C)C(=O)N[C@@H](CCC(=O)O)C(=O)N[C@@H](CCC(=O)O)C(=O)N[C@@H](CO)C(=O)N[C@@H](Cc1ccc(O)cc1)C(=O)N[C@H](C(=O)N[C@@H](CC(=O)O)C(=O)N[C@@H](CC(C)C)C(=O)N[C@@H](CCCCN)C(=O)N[C@@H](CCC(=O)O)C(=O)N[C@@H](CC(C)C)C(=O)O)[C@@H](C)CC [EK1]
IC50 (SARS-CoV-2 VOC PsVs): 0.48 to 4.61 µM
IC50 (SARS-CoV-2 PsV [5]; PsV, 12 h): 0.84 µM
IC50 (SARS-CoV PsV [8]): 2.8 µM
IC50 (authentic HCoV-OC43): 1.51 µM
IC50 (authentic HCoV-229E [9]): 2.2 µM
